How the values were obtained:
Type in all cases: cell-based, human
CCRF-CEM = test: NCI60 antitumor screening; details: 10 μM one-dose
HL-60(TB) = test: NCI60 antitumor screening; details: 10 μM one-dose
K-562 = test: NCI60 antitumor screening; details: 10 μM one-dose
MOLT-4 = test: NCI60 antitumor screening; details: 10 μM one-dose
RPMI-8226 = test: NCI60 antitumor screening; details: 10 μM one-dose
SR = test: NCI60 antitumor screening; details: 10 μM one-dose
A549/ATCC = test: NCI60 antitumor screening; details: 10 μM one-dose
EKVX = test: NCI60 antitumor screening; details: 10 μM one-dose
HOP-62 = test: NCI60 antitumor screening; details: 10 μM one-dose
HOP-92 = test: NCI60 antitumor screening; details: 10 μM one-dose
NCI-H226 = test: NCI60 antitumor screening; details: 10 μM one-dose
NCI-H23 = test: NCI60 antitumor screening; details: 10 μM one-dose
NCI-H322M = test: NCI60 antitumor screening; details: 10 μM one-dose
NCI-H460 = test: NCI60 antitumor screening; details: 10 μM one-dose
NCI-H522 = test: NCI60 antitumor screening; details: 10 μM one-dose
COLO 205 = test: NCI60 antitumor screening; details: 10 μM one-dose
HCC-2998 = test: NCI60 antitumor screening; details: 10 μM one-dose
HCT-116 = test: NCI60 antitumor screening; details: 10 μM one-dose
HCT-15 = test: NCI60 antitumor screening; details: 10 μM one-dose
HT29 = test: NCI60 antitumor screening; details: 10 μM one-dose
KM12 = test: NCI60 antitumor screening; details: 10 μM one-dose
SW-620 = test: NCI60 antitumor screening; details: 10 μM one-dose
SF-268 = test: NCI60 antitumor screening; details: 10 μM one-dose
SF-295 = test: NCI60 antitumor screening; details: 10 μM one-dose
SF-539 = test: NCI60 antitumor screening; details: 10 μM one-dose
SNB-19 = test: NCI60 antitumor screening; details: 10 μM one-dose
SNB-75 = test: NCI60 antitumor screening; details: 10 μM one-dose
U251 = test: NCI60 antitumor screening; details: 10 μM one-dose
LOX IMVI = test: NCI60 antitumor screening; details: 10 μM one-dose
MALME-3M = test: NCI60 antitumor screening; details: 10 μM one-dose
M14 = test: NCI60 antitumor screening; details: 10 μM one-dose
MDA-MB-435 = test: NCI60 antitumor screening; details: 10 μM one-dose
SK-MEL-2 = test: NCI60 antitumor screening; details: 10 μM one-dose
SK-MEL-28 = test: NCI60 antitumor screening; details: 10 μM one-dose
SK-MEL-5 = test: NCI60 antitumor screening; details: 10 μM one-dose
UACC-257 = test: NCI60 antitumor screening; details: 10 μM one-dose
UACC-62 = test: NCI60 antitumor screening; details: 10 μM one-dose
IGROV1 = test: NCI60 antitumor screening; details: 10 μM one-dose
OVCAR-3 = test: NCI60 antitumor screening; details: 10 μM one-dose
OVCAR-4 = test: NCI60 antitumor screening; details: 10 μM one-dose
OVCAR-5 = test: NCI60 antitumor screening; details: 10 μM one-dose
OVCAR-8 = test: NCI60 antitumor screening; details: 10 μM one-dose
NCI/ADR-RES = test: NCI60 antitumor screening; details: 10 μM one-dose
SK-OV-3 = test: NCI60 antitumor screening; details: 10 μM one-dose
786–0 = test: NCI60 antitumor screening; details: 10 μM one-dose
A498 = test: NCI60 antitumor screening; details: 10 μM one-dose
ACHN = test: NCI60 antitumor screening; details: 10 μM one-dose
CAKI-1 = test: NCI60 antitumor screening; details: 10 μM one-dose
RXF 393 = test: NCI60 antitumor screening; details: 10 μM one-dose
SN12C = test: NCI60 antitumor screening; details: 10 μM one-dose
TK-10 = test: NCI60 antitumor screening; details: 10 μM one-dose
UO-31 = test: NCI60 antitumor screening; details: 10 μM one-dose
PC-3 = test: NCI60 antitumor screening; details: 10 μM one-dose
DU-145 = test: NCI60 antitumor screening; details: 10 μM one-dose
MCF7 = test: NCI60 antitumor screening; details: 10 μM one-dose
MDA-MB-231/ATCC = test: NCI60 antitumor screening; details: 10 μM one-dose
HS 578T = test: NCI60 antitumor screening; details: 10 μM one-dose
BT-549 = test: NCI60 antitumor screening; details: 10 μM one-dose
T-47D = test: NCI60 antitumor screening; details: 10 μM one-dose
MDA-MB-468 = test: NCI60 antitumor screening; details: 10 μM one-dose
NCI60 cell lines panel = test: NCI60 antitumor screening, full panel; details: 10 μM one-dose, mean over NCI60
Protocol: The National Cancer Institute (NCI), Bethesda, Maryland, United States, selected all of the novel synthesized compounds (2b–d, 3a–d and 4a–p) for in vitro antitumor screening at a single concentration of 10 μM toward the NCI60 cell lines panel covering leukaemia, non-small cell lungs, colon, central nervous system (CNS), melanoma, ovarian, renal, prostate, and breast cancer cells.[32–35] The data were reported as a mean graph of the percent growth of the treated cell lines and expressed as percentage growth inhibition (GI%) in Table 1 and ESI 1.
(2) The molar concentration of the compound responsible for total growth inhibition, also known as total growth inhibition (TGI).
Regarding subpanel selectivity toward certain cancer type, the method of determining a compound's selectivity index is to divide the full panel MG-MID (μM) value by each single subpanel. Values above six indicate high selectivity against the subpanel; moderate selectivity is denoted by values between three and six. Conversely, compounds are termed nonselective if their selectivity is less than three.[30,37]

## N#Cc1c(Cl)nc(SCc2ccc(F)cc2)nc1-c1ccc(F)cc1 [3b, 4-Chloro-2-((4-fluorobenzyl)thio)-6-(4-fluorophenyl) pyrimidine-5-carbonitrile]
CCRF-CEM
  GI%: 13.30%
HL-60(TB)
  GI%: 49.83%
K-562
  GI%: 30.20%
MOLT-4
  GI%: 19.35%
RPMI-8226
  GI%: — (GI% < 10)
SR
  GI%: — (GI% < 10)
A549/ATCC
  GI%: — (GI% < 10)
EKVX
  GI%: 10.91%
HOP-62
  GI%: — (GI% < 10)
HOP-92
  GI%: 25.21%
NCI-H226
  GI%: 28.68%
NCI-H23
  GI%: — (GI% < 10)
NCI-H322M
  GI%: — (GI% < 10)
NCI-H460
  GI%: — (GI% < 10)
NCI-H522
  GI%: 25.38%
COLO 205
  GI%: — (GI% < 10)
HCC-2998
  GI%: — (GI% < 10)
HCT-116
  GI%: 18.51%
HCT-15
  GI%: 13.00%
HT29
  GI%: 13.44%
KM12
  GI%: — (GI% < 10)
SW-620
  GI%: — (GI% < 10)
SF-268
  GI%: — (GI% < 10)
SF-295
  GI%: 10.01%
SF-539
  GI%: — (GI% < 10)
SNB-19
  GI%: — (GI% < 10)
SNB-75
  GI%: — (GI% < 10)
U251
  GI%: — (GI% < 10)
LOX IMVI
  GI%: — (GI% < 10)
MALME-3M
  GI%: — (GI% < 10)
M14
  GI%: — (GI% < 10)
MDA-MB-435
  GI%: — (GI% < 10)
SK-MEL-2
  GI%: — (GI% < 10)
SK-MEL-28
  GI%: — (GI% < 10)
SK-MEL-5
  GI%: 13.82%
UACC-257
  GI%: — (GI% < 10)
UACC-62
  GI%: 13.95%
IGROV1
  GI%: — (GI% < 10)
OVCAR-3
  GI%: — (GI% < 10)
OVCAR-4
  GI%: — (GI% < 10)
OVCAR-5
  GI%: — (GI% < 10)
OVCAR-8
  GI%: 10.81%
NCI/ADR-RES
  GI%: 13.45%
SK-OV-3
  GI%: — (GI% < 10)
786–0
  GI%: — (GI% < 10)
A498
  GI%: — (GI% < 10)
ACHN
  GI%: — (GI% < 10)
CAKI-1
  GI%: — (GI% < 10)
RXF 393
  GI%: 10.29%
SN12C
  GI%: 19.06%
TK-10
  GI%: — (GI% < 10)
UO-31
  GI%: 12.89%
PC-3
  GI%: — (GI% < 10)
DU-145
  GI%: — (GI% < 10)
MCF7
  GI%: 17.40%
MDA-MB-231/ATCC
  GI%: — (GI% < 10)
HS 578T
  GI%: — (GI% < 10)
BT-549
  GI%: — (GI% < 10)
T-47D
  GI%: 33.18%
MDA-MB-468
  GI%: — (GI% < 10)
NCI60 cell lines panel
  Mean GI%: — (GI% < 10)

## N#Cc1c(Cl)nc(SCc2ccc([N+](=O)[O-])cc2)nc1-c1ccc(F)cc1 [3c, 4-Chloro-6-(4-fluorophenyl)-2-((4-nitrobenzyl)thio) pyrimidine-5-carbonitrile]
CCRF-CEM
  GI%: 32.30%
HL-60(TB)
  GI%: 57.98%
K-562
  GI%: 44.30%
MOLT-4
  GI%: 38.07%
RPMI-8226
  GI%: 41.51%
SR
  GI%: — (GI% < 10)
A549/ATCC
  GI%: 33.50%
EKVX
  GI%: 20.38%
HOP-62
  GI%: — (GI% < 10)
HOP-92
  GI%: 45.40%
NCI-H226
  GI%: 46.54%
NCI-H23
  GI%: 12.20%
NCI-H322M
  GI%: 13.28%
NCI-H460
  GI%: 13.48%
NCI-H522
  GI%: 37.48%
COLO 205
  GI%: 22.66%
HCC-2998
  GI%: 12.17%
HCT-116
  GI%: 40.70%
HCT-15
  GI%: 45.64%
HT29
  GI%: 61.63%
KM12
  GI%: 27.77%
SW-620
  GI%: 37.21%
SF-268
  GI%: 18.20%
SF-295
  GI%: 29.81%
SF-539
  GI%: 28.21%
SNB-19
  GI%: 10.67%
SNB-75
  GI%: — (GI% < 10)
U251
  GI%: 31.17%
LOX IMVI
  GI%: 14.22%
MALME-3M
  GI%: — (GI% < 10)
M14
  GI%: 12.41%
MDA-MB-435
  GI%: — (GI% < 10)
SK-MEL-2
  GI%: — (GI% < 10)
SK-MEL-28
  GI%: — (GI% < 10)
SK-MEL-5
  GI%: 22.36%
UACC-257
  GI%: 24.66%
UACC-62
  GI%: 22.80%
IGROV1
  GI%: — (GI% < 10)
OVCAR-3
  GI%: 13.71%
OVCAR-4
  GI%: 18.42%
OVCAR-5
  GI%: — (GI% < 10)
OVCAR-8
  GI%: 16.16%
NCI/ADR-RES
  GI%: 27.59%
SK-OV-3
  GI%: 11.73%
786–0
  GI%: 21.29%
A498
  GI%: — (GI% < 10)
ACHN
  GI%: 14.60%
CAKI-1
  GI%: 32.89%
RXF 393
  GI%: 29.76%
SN12C
  GI%: 29.81%
TK-10
  GI%: — (GI% < 10)
UO-31
  GI%: 32.10%
PC-3
  GI%: 57.37%
DU-145
  GI%: 24.93%
MCF7
  GI%: 27.06%
MDA-MB-231/ATCC
  GI%: — (GI% < 10)
HS 578T
  GI%: 13.31%
BT-549
  GI%: 43.62%
T-47D
  GI%: 68.67%
MDA-MB-468
  GI%: 19.68%
NCI60 cell lines panel
  Mean GI%: 23.91%

Source: PMC10620772, “Design, synthesis, and biological evaluation of new pyrimidine-5-carbonitrile derivatives as novel anti-cancer, dual EGFR^WT/COX-2 inhibitors with docking studies” (RSC Advances, 2023)
